Data taken from patent US9340590B2 (priority 2011, dated 2016).
Where two headings read alike, the source gives them in different places. Positions of bridges follow the written chain, without caps; N, C: chain ends. Non-standard residues stand in square brackets, D forms with d. Residues, ends and D or L forms follow the SMILES beside them. 1Nal = N[C@@H](Cc1cccc2ccccc12)C(=O)O

Molecular target: hNav1.7 (Homo sapiens, UniProt Q15858)
Test: cell-based
Assay type: cell-based
[1] = IonWorks Quattro, Use, read-out: IWQ Use Nav1.7

hNav1.7, sequence (Q15858 whole entry, looked up): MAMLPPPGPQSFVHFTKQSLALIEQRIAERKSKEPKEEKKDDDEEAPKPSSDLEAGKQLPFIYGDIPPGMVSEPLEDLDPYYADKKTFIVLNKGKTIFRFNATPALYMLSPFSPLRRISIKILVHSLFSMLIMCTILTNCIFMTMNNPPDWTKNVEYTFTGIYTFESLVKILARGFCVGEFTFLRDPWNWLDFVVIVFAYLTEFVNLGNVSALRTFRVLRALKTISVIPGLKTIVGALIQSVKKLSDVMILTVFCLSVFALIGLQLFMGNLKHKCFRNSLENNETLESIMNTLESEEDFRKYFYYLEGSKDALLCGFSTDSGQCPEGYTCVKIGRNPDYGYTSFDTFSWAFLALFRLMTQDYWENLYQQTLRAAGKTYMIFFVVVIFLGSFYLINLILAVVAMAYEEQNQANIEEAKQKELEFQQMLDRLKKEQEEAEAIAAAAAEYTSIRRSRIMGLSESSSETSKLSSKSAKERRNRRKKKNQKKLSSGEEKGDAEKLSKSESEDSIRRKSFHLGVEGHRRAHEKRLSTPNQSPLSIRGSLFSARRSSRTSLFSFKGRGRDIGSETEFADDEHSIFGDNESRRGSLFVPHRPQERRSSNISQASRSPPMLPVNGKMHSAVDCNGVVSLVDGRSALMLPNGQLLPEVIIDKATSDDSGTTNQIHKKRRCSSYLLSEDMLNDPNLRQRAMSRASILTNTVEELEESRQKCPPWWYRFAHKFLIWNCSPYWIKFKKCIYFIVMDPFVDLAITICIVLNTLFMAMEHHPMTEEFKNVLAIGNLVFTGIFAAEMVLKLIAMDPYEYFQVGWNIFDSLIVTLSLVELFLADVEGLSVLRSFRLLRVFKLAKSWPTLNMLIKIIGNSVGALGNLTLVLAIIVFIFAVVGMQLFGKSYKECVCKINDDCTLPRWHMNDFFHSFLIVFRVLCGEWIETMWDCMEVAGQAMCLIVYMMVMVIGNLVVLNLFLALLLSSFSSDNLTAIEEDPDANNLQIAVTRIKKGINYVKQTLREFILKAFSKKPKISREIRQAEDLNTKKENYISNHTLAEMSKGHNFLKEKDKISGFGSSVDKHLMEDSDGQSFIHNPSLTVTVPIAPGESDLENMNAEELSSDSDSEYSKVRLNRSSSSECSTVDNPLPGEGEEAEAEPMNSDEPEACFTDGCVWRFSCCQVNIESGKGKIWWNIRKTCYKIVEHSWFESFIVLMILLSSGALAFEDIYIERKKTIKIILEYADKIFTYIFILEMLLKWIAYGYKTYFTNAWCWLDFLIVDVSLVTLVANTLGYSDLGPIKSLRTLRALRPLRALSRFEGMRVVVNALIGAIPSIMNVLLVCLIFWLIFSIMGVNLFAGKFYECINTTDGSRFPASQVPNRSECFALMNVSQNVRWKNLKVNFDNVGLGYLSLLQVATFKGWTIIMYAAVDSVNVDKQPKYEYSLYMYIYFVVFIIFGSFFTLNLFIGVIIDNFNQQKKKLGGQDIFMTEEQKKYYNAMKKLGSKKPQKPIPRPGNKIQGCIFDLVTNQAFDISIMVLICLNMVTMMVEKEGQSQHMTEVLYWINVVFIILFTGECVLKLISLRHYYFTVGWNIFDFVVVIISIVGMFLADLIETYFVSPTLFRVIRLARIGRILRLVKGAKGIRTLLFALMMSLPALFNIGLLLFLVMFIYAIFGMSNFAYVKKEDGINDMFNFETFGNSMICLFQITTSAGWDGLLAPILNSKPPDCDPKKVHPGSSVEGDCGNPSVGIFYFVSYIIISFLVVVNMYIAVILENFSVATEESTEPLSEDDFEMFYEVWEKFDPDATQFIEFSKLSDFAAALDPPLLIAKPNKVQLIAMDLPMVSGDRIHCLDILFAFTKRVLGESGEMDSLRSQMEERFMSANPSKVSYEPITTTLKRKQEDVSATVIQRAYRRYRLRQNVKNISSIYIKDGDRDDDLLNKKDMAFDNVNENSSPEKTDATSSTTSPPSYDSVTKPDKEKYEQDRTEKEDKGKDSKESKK

SMILES | IC50 [1] [nM] | IC50 (read-out: IWQ Use Nav1.7) [nM] | other results
CC[C@H](C)[C@@H]1NC(=O)[C@@H]2CSSC[C@@H]3NC(=O)[C@H](C(C)C)NC(=O)[C@H](CC(C)C)NC(=O)[C@H](CC(N)=O)NC(=O)[C@@H]4CCCN4C(=O)[C@H](CCCNC(=N)N)NC(=O)[C@H](CSSC[C@H](NC(=O)[C@@H](N)CC(=O)O)C(=O)N[C@@H](CC(C)C)C(=O)NCC(=O)N[C@@H](Cc4ccccc4)C(=O)N[C@@H](CCSC)C(=O)N[C@@H](CCCNC(=N)N)C(=O)N[C@@H](CCCCN)C(=O)N2)NC(=O)[C@H](CSSC[C@@H](C(=O)N[C@@H](CCCCN)C(=O)N[C@@H](Cc2cccc4ccccc24)C(=O)N[C@H](C(=O)N[C@@H](Cc2ccccc2)C(N)=O)C(C)C)NC(=O)[C@H](Cc2c[nH]c4ccccc24)NC(=O)[C@H](CCCCN)NC(=O)[C@H](Cc2c[nH]cn2)NC(=O)[C@H]([C@@H](C)O)NC(=O)[C@H](CCCNC(=N)N)NC(=O)[C@H](CO)NC3=O)NC(=O)[C@H](CCCCN)NC(=O)[C@H](CC(=O)O)NC(=O)[C@H](CC(N)=O)NC(=O)[C@H](CC(=O)O)NC(=O)[C@@H]2CCCN2C1=O [compound 167] (H-DCLGFMRKCIPDNDKCCRPNLVCSRTHKWCK[1Nal]VF-NH2; disulfide 2-17, 9-23, 16-30) |  |  | IC50 (Table 25, IonWorks Quattro, use, […], read-out: IWQ Use Nav1.7): 4 nM
CC[C@H](C)[C@@H]1NC(=O)[C@@H]2CSSC[C@@H]3NC(=O)[C@H](C(C)C)NC(=O)[C@H](CC(C)C)NC(=O)[C@H](CC(N)=O)NC(=O)[C@@H]4CCCN4C(=O)[C@H](CCCNC(=N)N)NC(=O)[C@H](CSSC[C@H](NC(=O)[C@@H](N)CC(=O)O)C(=O)N[C@@H](CC(C)C)C(=O)NCC(=O)N[C@@H](Cc4ccccc4)C(=O)N[C@@H](CCSC)C(=O)N[C@@H](CCCNC(=N)N)C(=O)N[C@@H](CCCCN)C(=O)N2)NC(=O)[C@H](CSSC[C@@H](C(=O)N[C@@H](CCCCN)C(=O)N[C@@H](Cc2ccc(O)cc2)C(=O)N[C@H](C(=O)N[C@@H](Cc2ccccc2)C(N)=O)C(C)C)NC(=O)[C@H](Cc2c[nH]c4ccccc24)NC(=O)[C@H](CCCCN)NC(=O)[C@H](Cc2c[nH]cn2)NC(=O)[C@H]([C@@H](C)O)NC(=O)[C@H](CCCNC(=N)N)NC(=O)[C@H](CO)NC3=O)NC(=O)[C@H](CCCCN)NC(=O)[C@H](CC(=O)O)NC(=O)[C@H](CCCCN)NC(=O)[C@H](CC(=O)O)NC(=O)[C@@H]2CCCN2C1=O [compound 48] (H-DCLGFMRKCIPDKDKCCRPNLVCSRTHKWCKYVF-NH2; disulfide 2-17, 9-23, 16-30) | 210 |  | 
CC[C@H](C)[C@@H]1NC(=O)[C@@H]2CSSC[C@@H]3NC(=O)[C@H](CCCNC(=N)N)NC(=O)[C@H](CC(C)C)NC(=O)[C@H](CC(N)=O)NC(=O)[C@@H]4CCCN4C(=O)[C@H](CCCNC(=N)N)NC(=O)[C@H](CSSC[C@H](NC(=O)[C@@H](N)CC(=O)O)C(=O)N[C@@H](CC(C)C)C(=O)NCC(=O)N[C@@H](Cc4ccccc4)C(=O)N[C@@H](CCSC)C(=O)N[C@@H](CCCNC(=N)N)C(=O)N[C@@H](CCCCN)C(=O)N2)NC(=O)[C@H](CSSC[C@@H](C(=O)N[C@@H](CCCCN)C(=O)N[C@@H](Cc2ccc(O)cc2)C(=O)N[C@H](C(=O)N[C@@H](Cc2ccccc2)C(N)=O)C(C)C)NC(=O)[C@H](Cc2c[nH]c4ccccc24)NC(=O)[C@H](CCCCN)NC(=O)[C@H](Cc2c[nH]cn2)NC(=O)[C@H]([C@@H](C)O)NC(=O)[C@H](CCCNC(=N)N)NC(=O)[C@H](CO)NC3=O)NC(=O)[C@H](CCCCN)NC(=O)[C@H](CC(=O)O)NC(=O)[C@H](CC(N)=O)NC(=O)[C@H](CC(=O)O)NC(=O)[C@@H]2CCCN2C1=O [compound 158] (H-DCLGFMRKCIPDNDKCCRPNLRCSRTHKWCKYVF-NH2; disulfide 2-17, 9-23, 16-30) | 60 |  | 
CC[C@H](C)[C@@H]1NC(=O)[C@@H]2CSSC[C@@H]3NC(=O)[C@H](C(C)C)NC(=O)[C@H](CC(C)C)NC(=O)[C@H](C)NC(=O)[C@@H]4CCCN4C(=O)[C@H](CCCNC(=N)N)NC(=O)[C@H](CSSC[C@H](NC(=O)[C@@H](N)CC(=O)O)C(=O)N[C@@H](CC(C)C)C(=O)NCC(=O)N[C@@H](Cc4ccccc4)C(=O)N[C@@H](CCSC)C(=O)N[C@@H](CCCNC(=N)N)C(=O)N[C@@H](CCCCN)C(=O)N2)NC(=O)[C@H](CSSC[C@@H](C(=O)N[C@@H](CCCCN)C(=O)N[C@@H](Cc2ccc(O)cc2)C(=O)N[C@H](C(=O)N[C@@H](Cc2ccccc2)C(N)=O)C(C)C)NC(=O)[C@H](Cc2c[nH]c4ccccc24)NC(=O)[C@H](CCCCN)NC(=O)[C@H](Cc2c[nH]cn2)NC(=O)[C@H]([C@@H](C)O)NC(=O)[C@H](CCCNC(=N)N)NC(=O)[C@H](CO)NC3=O)NC(=O)[C@H](CCCCN)NC(=O)[C@H](CC(=O)O)NC(=O)[C@H](CC(N)=O)NC(=O)[C@H](CC(=O)O)NC(=O)[C@@H]2CCCN2C1=O [compound 7] (H-DCLGFMRKCIPDNDKCCRPALVCSRTHKWCKYVF-NH2; disulfide 2-17, 9-23, 16-30) |  | 690 | 
CSCC[C@@H]1NC(=O)[C@H](Cc2ccccc2)NC(=O)CNC(=O)[C@H](CC(C)C)NC(=O)[C@@H](NC(=O)[C@@H](N)CC(=O)O)CSSC[C@@H]2NC(=O)[C@@H]3CSSC[C@@H](C(=O)N[C@@H](CCCCN)C(=O)N[C@@H](Cc4ccc(O)cc4)C(=O)N[C@H](C(=O)N[C@@H](Cc4ccccc4)C(N)=O)C(C)C)NC(=O)[C@H](Cc4c[nH]c5ccccc45)NC(=O)[C@H](CCCCN)NC(=O)[C@H](Cc4c[nH]cn4)NC(=O)[C@H]([C@@H](C)O)NC(=O)[C@H](CCCNC(=N)N)NC(=O)[C@H](CO)NC(=O)[C@H](CSSC[C@H](NC(=O)[C@H](CCCCN)NC(=O)[C@H](CCCNC(=N)N)NC1=O)C(=O)N[C@@H](Cc1ccc(O)cc1)C(=O)N1CCC[C@H]1C(=O)N[C@@H](CC(=O)O)C(=O)N[C@@H](CC(N)=O)C(=O)N[C@@H](CC(=O)O)C(=O)N[C@@H](CCCCN)C(=O)N3)NC(=O)[C@H](C(C)C)NC(=O)[C@H](CC(C)C)NC(=O)[C@H](CC(N)=O)NC(=O)[C@@H]1CCCN1C(=O)[C@H](CCCNC(=N)N)NC2=O [compound 299] (H-DCLGFMRKCYPDNDKCCRPNLVCSRTHKWCKYVF-NH2; disulfide 2-17, 9-23, 16-30) | 140 |  | 
CC[C@H](C)[C@@H]1NC(=O)[C@@H]2CSSC[C@@H]3NC(=O)[C@H](C(C)C)NC(=O)[C@H](CC(C)C)NC(=O)[C@H](CC(N)=O)NC(=O)[C@@H]4CCCN4C(=O)[C@H](CCCNC(=N)N)NC(=O)[C@H](CSSC[C@H](NC(=O)[C@@H](N)CC(=O)O)C(=O)N[C@@H](CC(C)C)C(=O)N[C@@H](Cc4c[nH]c5ccccc45)C(=O)N[C@@H](Cc4ccccc4)C(=O)N[C@@H](CCSC)C(=O)N[C@@H](CCCNC(=N)N)C(=O)N[C@@H](CCCCN)C(=O)N2)NC(=O)[C@H](CSSC[C@@H](C(=O)N[C@@H](CCCCN)C(=O)N[C@@H](Cc2ccc(O)cc2)C(=O)N[C@H](C(=O)N[C@@H](Cc2ccccc2)C(N)=O)C(C)C)NC(=O)[C@H](Cc2c[nH]c4ccccc24)NC(=O)[C@H](CCCCN)NC(=O)[C@H](Cc2c[nH]cn2)NC(=O)[C@H]([C@@H](C)O)NC(=O)[C@H](CCCNC(=N)N)NC(=O)[C@H](CO)NC3=O)NC(=O)[C@H](CCCCN)NC(=O)[C@H](CC(=O)O)NC(=O)[C@H](CC(N)=O)NC(=O)[C@H](CC(=O)O)NC(=O)[C@@H]2CCCN2C1=O [SEQ ID NO: 169] (H-DCLWFMRKCIPDNDKCCRPNLVCSRTHKWCKYVF-NH2; disulfide 2-17, 9-23, 16-30) |  | 50 | 
CC[C@H](C)[C@@H]1NC(=O)[C@@H]2CSSC[C@@H]3NC(=O)[C@H](C(C)C)NC(=O)[C@H](CC(C)C)NC(=O)[C@H](CC(N)=O)NC(=O)[C@@H]4CCCN4C(=O)[C@H](CCCNC(=N)N)NC(=O)[C@H](CSSC[C@H](NC(=O)[C@@H](N)CC(=O)O)C(=O)N[C@@H](CC(C)C)C(=O)NCC(=O)N[C@@H](Cc4ccccc4)C(=O)N[C@@H](CCSC)C(=O)N[C@@H](CCCNC(=N)N)C(=O)N[C@@H](CCC(=O)O)C(=O)N2)NC(=O)[C@H](CSSC[C@@H](C(=O)N[C@@H](CCCCN)C(=O)N[C@@H](Cc2ccc(O)cc2)C(=O)N[C@H](C(=O)N[C@@H](Cc2ccccc2)C(N)=O)C(C)C)NC(=O)[C@H](Cc2c[nH]c4ccccc24)NC(=O)[C@H](CCCCN)NC(=O)[C@H](Cc2c[nH]cn2)NC(=O)[C@H]([C@@H](C)O)NC(=O)[C@H](CCCNC(=N)N)NC(=O)[C@H](CO)NC3=O)NC(=O)[C@H](CCCCN)NC(=O)[C@H](CC(=O)O)NC(=O)[C@H](CC(N)=O)NC(=O)[C@H](CC(=O)O)NC(=O)[C@@H]2CCCN2C1=O [[Glu8]GpTx-1(1-34)] (H-DCLGFMRECIPDNDKCCRPNLVCSRTHKWCKYVF-NH2; disulfide 2-17, 9-23, 16-30) |  | 1700 | 
CC[C@H](C)[C@@H]1NC(=O)[C@@H]2CSSC[C@@H]3NC(=O)[C@H](C(C)C)NC(=O)[C@H](CC(C)C)NC(=O)[C@H](CC(N)=O)NC(=O)[C@@H]4CCCN4C(=O)[C@H](CCCNC(=N)N)NC(=O)[C@H](CSSC[C@H](NC(=O)[C@@H](N)CC(=O)O)C(=O)N[C@@H](CC(C)C)C(=O)NCC(=O)N[C@@H](Cc4ccccc4)C(=O)N[C@@H](CCSC)C(=O)N[C@@H](CCCNC(=N)N)C(=O)N[C@@H](CCCCN)C(=O)N2)NC(=O)[C@H](CSSC[C@@H](C(=O)N[C@@H](CCCCN)C(=O)N[C@@H](Cc2ccc(O)cc2)C(=O)N[C@H](C(N)=O)C(C)C)NC(=O)[C@H](Cc2c[nH]c4ccccc24)NC(=O)[C@H](CCCCN)NC(=O)[C@H](Cc2c[nH]cn2)NC(=O)[C@H]([C@@H](C)O)NC(=O)[C@H](CCCNC(=N)N)NC(=O)[C@H](CO)NC3=O)NC(=O)[C@H](CCCCN)NC(=O)[C@H](CC(=O)O)NC(=O)[C@H](CC(N)=O)NC(=O)[C@H](CC(=O)O)NC(=O)[C@@H]2CCCN2C1=O [compound 415] (H-DCLGFMRKCIPDNDKCCRPNLVCSRTHKWCKYV-NH2; disulfide 2-17, 9-23, 16-30) |  |  | IC50 (IonWorks Quattro, use-dependent, […], read-out: IWQ Use Nav1.7 (μm)): 2350 nM
